According to US7625841B2, “Substituted thiene-3-ylsulphonylamino(thio)carbonyltriazolin(ethi)ones” (Bayer CropScience AG, priority 2001, dated 2009):

What was measured:
Assay type in all cases: in vivo
Polygonum = assay: Pre-emergence test/greenhouse; conditions: greenhouse, application rate 15 gai/ha, rated after three weeks, 0%=no effect, 100%=total destruction
Method: (§1) • Solvent: 5 parts by weight of acetone • Emulsifier: 1 part by weight of alkylaryl polyglycol ether
(§2) To produce a suitable preparation of active compound, 1 part by weight of active compound is mixed with the stated amount of solvent, the stated amount of emulsifier is added and the concetrate is diluted with water to the desired concentration.
(§3) Seeds of the test plants are sown in normal soil. After 24 hours, the soil is sprayed with the preparation of active compound such that the particular amount of active compound desired is applied per unit area. The concentration of active compound in the spray liquor is chosen such that the particular amount of active compound desired is applied in 1000 litres of water per hectare.
(§4) After three weeks, the degree of damage to the plants is rated in % damage in comparison to the development of the untreated control. The figures denote: • 0%=no effect (like untreated control) • 100%=total destruction

Matricaria = assay: Pre-emergence test/greenhouse; conditions: greenhouse, application rate 15 gai/ha, rated after three weeks, 0%=no effect, 100%=total destruction; for pest or weed control at 15 g/ha: Matricaria, 504 h, read-out: degree of damage to the plants, Matricaria
Method: as §1, §2, §3, §4

Stellaria = assay: Pre-emergence test/greenhouse; conditions: greenhouse, application rate 15 gai/ha, rated after three weeks, 0%=no effect, 100%=total destruction; for pest or weed control at 15 g/ha: Stellaria, 504 h, read-out: degree of damage to the plants, Stellaria
Method: as §1, §2, §3, §4

Lolium [1] = assay: Pre-emergence test/greenhouse; conditions: greenhouse, application rate 15 gai/ha, rated after three weeks, 0%=no effect, 100%=total destruction; for pest or weed control at 15 g/ha: Lolium, 504 h, read-out: degree of damage to the plants, Lolium
Method: as §1, §2, §3, §4

Amaranthus = assay: Pre-emergence test/greenhouse; conditions: greenhouse, application rate 15 gai/ha, rated after three weeks, 0%=no effect, 100%=total destruction
Method: as §1, §2, §3, §4

Avena fatua [2] = assay: Pre-emergence test/greenhouse; conditions: greenhouse, application rate 15 gai/ha, rated after three weeks, 0%=no effect, 100%=total destruction
Method: as §1, §2, §3, §4

weeds [3] = assay: Pre-emergence test, summary for weeds
Method: as §1, §2, §3, §4

[4] = test system: crop plants such as, for example, maize, oilseed rape and wheat; assay: Post-emergence test, summary for crop plants
Method: as §1
(§5) To produce a suitable preparation of active compound, 1 part by weight of active compound is mixed with the stated amount of solvent, the stated amount of emulsifier is added and the concentrate is diluted with water to the desired concentration.
(§6) Test plants of a height of 5-15 cm are sprayed with the preparation of active compound such that the particular amounts of active compound desired are applied per unit area. The concentration of the spray liquor is chosen such that the particular amounts of active compound desired are applied in 1000 l of water/ha.
(§7) After three weeks, the degree of damage to the plants is rated in % damage in comparison to the development of the untreated control.
(§8) The figures denote: • 0%=no effect (like untreated control) • 100%=total destruction

[5] = test system: crop plants, such as, for example, maize, soyabean and wheat; assay: Pre-emergence test, summary for crop plants
Method: as §1, §2, §3, §4

Xanthium [6] = assay: Post-emergence test/greenhouse; conditions: greenhouse, application rate 15 gai/ha, rated after three weeks, 0%=no effect, 100%=total destruction
Method: as §1, §5, §6, §7, §8

Echinochloa = assay: Post-emergence test/greenhouse; conditions: greenhouse, application rate 15 gai/ha, rated after three weeks, 0%=no effect, 100%=total destruction
Method: as §1, §5, §6, §7, §8

Setaria [7] = assay: Post-emergence test/greenhouse; conditions: greenhouse, application rate 15 gai/ha, rated after three weeks, 0%=no effect, 100%=total destruction
Method: as §1, §5, §6, §7, §8

Lolium [8] = assay: Post-emergence test/greenhouse; conditions: greenhouse, application rate 15 gai/ha, rated after three weeks, 0%=no effect, 100%=total destruction
Method: as §1, §5, §6, §7, §8

Digitaria [9] = assay: Post-emergence test/greenhouse; conditions: greenhouse, application rate 15 gai/ha, rated after three weeks, 0%=no effect, 100%=total destruction
Method: as §1, §5, §6, §7, §8

Viola = assay: Post-emergence test/greenhouse; conditions: greenhouse, application rate 15 gai/ha, rated after three weeks, 0%=no effect, 100%=total destruction
Method: as §1, §5, §6, §7, §8

Avena fatua [10] = assay: Post-emergence test/greenhouse; conditions: greenhouse, application rate 15 gai/ha, rated after three weeks, 0%=no effect, 100%=total destruction
Method: as §1, §5, §6, §7, §8

weeds [11] = assay: Post-emergence test, summary for weeds
Method: as §1, §5, §6, §7, §8

Setaria [12] = assay: Pre-emergence test/greenhouse; conditions: greenhouse, application rate 15 gai/ha, rated after three weeks, 0%=no effect, 100%=total destruction
Method: as §1, §2, §3, §4

Bromus [13] = assay: Post-emergence test/greenhouse; conditions: greenhouse, application rate 15 gai/ha, rated after three weeks, 0%=no effect, 100%=total destruction
Method: as §1, §5, §6, §7, §8

maize = assay: Pre-emergence test/greenhouse; conditions: Zea mays, 504 h, greenhouse, application rate 15 gai/ha, rated after three weeks, 0%=no effect, 100%=total destruction, read-out: degree of damage to the plants, maize
Method: as §1, §2, §3, §4

Xanthium [14] = assay: Pre-emergence test/greenhouse; conditions: Xanthium, 504 h, greenhouse, application rate 15 gai/ha, rated after three weeks, 0%=no effect, 100%=total destruction, read-out: degree of damage to the plants, Xanthium
Method: as §1, §2, §3, §4

Solanum = assay: Pre-emergence test/greenhouse; conditions: greenhouse, application rate 15 gai/ha, rated after three weeks, 0%=no effect, 100%=total destruction
Method: as §1, §2, §3, §4

Alopecurus = assay: Pre-emergence test/greenhouse; conditions: greenhouse, application rate 15 gai/ha, rated after three weeks, 0%=no effect, 100%=total destruction
Method: as §1, §2, §3, §4

Chenopodium = assay: Pre-emergence test/greenhouse; conditions: greenhouse, application rate 15 gai/ha, rated after three weeks, 0%=no effect, 100%=total destruction
Method: as §1, §2, §3, §4

Digitaria [15] = assay: Pre-emergence test/greenhouse; conditions: greenhouse, application rate 15 gai/ha, rated after three weeks, 0%=no effect, 100%=total destruction
Method: as §1, §2, §3, §4

Bromus [16] = assay: Pre-emergence test/greenhouse; conditions: greenhouse, application rate 15 gai/ha, rated after three weeks, 0%=no effect, 100%=total destruction
Method: as §1, §2, §3, §4

wheat = assay: Pre-emergence test/greenhouse; conditions: Triticum aestivum, 504 h, greenhouse, application rate 15 gai/ha, rated after three weeks, 0%=no effect, 100%=total destruction, read-out: degree of damage to the plants, wheat
Method: as §1, §2, §3, §4

soybeans = assay: Pre-emergence test/greenhouse; conditions: greenhouse, application rate 15 gai/ha, rated after three weeks, 0%=no effect, 100%=total destruction
Method: as §1, §2, §3, §4

Galium = assay: Pre-emergence test/greenhouse; conditions: greenhouse, application rate 15 gai/ha, rated after three weeks, 0%=no effect, 100%=total destruction
Method: as §1, §2, §3, §4

| SMILES | degree of damage to the plants, Polygonum (Polygonum) [%] | degree of damage to the plants, Matricaria (Matricaria) [%] | degree of damage to the plants, Stellaria (Stellaria) [%] | degree of damage to the plants, Lolium (Lolium [1]) [%] | degree of damage to the plants, Amaranthus (Amaranthus) [%] | degree of damage to the plants, Avena fatua (Avena fatua [2]) [%] | degree of damage to the plants, Setaria (Setaria [12]) [%] | plant injury at 15 g/ha (maize) [%] | pest or weed control at 15 g/ha (Xanthium [14]) [%] | pest or weed control at 15 g/ha (Matricaria) [%] | pest or weed control at 15 g/ha (Stellaria) [%] | degree of damage to the plants, Solanum (Solanum) [%] | degree of damage to the plants, Alopecurus (Alopecurus) [%] | pest or weed control at 15 g/ha (Lolium [1]) [%] | degree of damage to the plants, Chenopodium (Chenopodium) [%] | degree of damage to the plants, Digitaria (Digitaria [15]) [%] | degree of damage to the plants, Bromus (Bromus [16]) [%] | plant injury at 15 g/ha (wheat) [%] | degree of damage to the plants, soybeans (soybeans) [%] | degree of damage to the plants, Galium (Galium) [%] | further results |
| --- | --- | --- | --- | --- | --- | --- | --- | --- | --- | --- | --- | --- | --- | --- | --- | --- | --- | --- | --- | --- | --- |
| CCCc1nn(C(=O)NS(=O)(=O)c2c(C(=O)OC)csc2C)c(=O)n1C1CC1 [Example 48] | 95 | 95 | 100 | 95 | 100 | 95 | – | – | – | – | – | – | – | – | – | – | – | – | – | – | activity against weeds compared with the known compounds (A) to (G) (weeds [3]): considerably stronger activity against weeds; compatibility with crop plants compared with the known compounds (A) and (B) [4]: substantially better compatibility with crop plants; tolerance by crop plants [5]: tolerated well by crop plants; degree of damage to the plants, Xanthium (Xanthium [6]): 90%; degree of damage to the plants, Echinochloa (Echinochloa): 95%; degree of damage to the plants, Setaria (Setaria [7]): 80%; degree of damage to the plants, Lolium (Lolium [8]): 100%; degree of damage to the plants, Digitaria (Digitaria [9]): 90%; degree of damage to the plants, Viola (Viola): 95%; degree of damage to the plants, Avena fatua (Avena fatua [10]): 90%; activity against weeds compared with the known compounds (A) and (B) (weeds [11]): considerably stronger activity against weeds |
| CCc1nn(C(=O)NS(=O)(=O)c2c(C(=O)OC)csc2C)c(=O)n1C1CC1 [Example 47] | 90 | 100 | 100 | 80 | 100 | 95 | 95 | – | – | – | – | – | – | – | – | – | – | – | – | – | activity against weeds compared with the known compounds (A) to (G) (weeds [3]): considerably stronger activity against weeds; compatibility with crop plants compared with the known compounds (A) and (B) [4]: substantially better compatibility with crop plants; tolerance by crop plants [5]: tolerated well by crop plants; degree of damage to the plants, Xanthium (Xanthium [6]): 80%; degree of damage to the plants, Echinochloa (Echinochloa): 95%; degree of damage to the plants, Setaria (Setaria [7]): 90%; degree of damage to the plants, Lolium (Lolium [8]): 100%; degree of damage to the plants, Digitaria (Digitaria [9]): 90%; degree of damage to the plants, Bromus (Bromus [13]): 80%; degree of damage to the plants, Viola (Viola): 100%; degree of damage to the plants, Avena fatua (Avena fatua [10]): 95%; activity against weeds compared with the known compounds (A) and (B) (weeds [11]): considerably stronger activity against weeds |
| COC(=O)c1csc(C)c1S(=O)(=O)NC(=O)n1nc(C)n(C)c1=O [(E), methyl 4-[[[(4,5-dihydro-3,4-dimethyl-5-oxo-1H-1,2,4-triazol-1-yl)carbonyl]-amino]sulfonyl]-5-methyl-3-thiophenecarboxylate, reference compound] | 20 | – | – | – | 10 | 0 | 20 | 0 | 0 | 20 | 40 | 70 | 20 | 0 | 0 | 0 | 20 | 0 | 0 | 0 | – |
| COC(=O)c1csc(C)c1S(=O)(=O)NC(=O)n1nc(OC(C)C)n(C2CC2)c1=O [(C), methyl 4-[[[(4-cyclopropyl-4,5-dihydro-5-oxo-3-isopropoxy-1H-1,2,4-triazol-1-yl)-carbonyl]amino]sulfonyl]-5-methyl-3-thiophenecarboxylate, reference compound] | 60 | – | – | – | 80 | 50 | 50 | 0 | 0 | 80 | 80 | – | 0 | 50 | 40 | 20 | 70 | 0 | 0 | 70 | – |
| COC(=O)c1csc(C)c1S(=O)(=O)NC(=O)n1nc(C2CC2)n(C2CC2)c1=O [(D), methyl 4-[[[(3,4-dicyclopropyl-4,5-dihydro-5-oxo-1H-1,2,4-triazol-1-yl)carbonyl]-amino]sulfonyl]-5-methyl-3-thiophenecarboxylate, reference compound] | 10 | – | – | – | 80 | 70 | 10 | 20 | 0 | 10 | 60 | 80 | 0 | 20 | 0 | 20 | 10 | 0 | 0 | 0 | – |
| CCc1nn(C(=O)NS(=O)(=O)c2c(C(=O)OC)csc2C)c(=O)n1C [(F), methyl 4-[[[(4,5-dihydro-3-ethyl-4-methyl-5-oxo-1H-1,2,4-triazol-1-yl)carbonyl]-amino]sulfonyl]-5-methyl-3-thiophenecarboxylate, reference compound] | 50 | – | – | – | 40 | 60 | 30 | 0 | 0 | 20 | 70 | 80 | 70 | 40 | 0 | 60 | 70 | 0 | 10 | 10 | – |
